The text below walks through data of patent publication US11014898B1, “Benzothiazepine compounds and their use as bile acid modulators” (Albireo AB, priority 2020, dated 2021).

Usually pIC50 stands for the IC50 on a negative log10 scale, so that one unit is a factor of ten.

pIC50: −log10 of the molar value.

Assay [1] addresses T1, Human IBAT (Homo sapiens, UniProt Q12908).
T1 construct: expressed in transfected cells; cells kept under Puromycin selection
T1 sequence (Q12908 1-348): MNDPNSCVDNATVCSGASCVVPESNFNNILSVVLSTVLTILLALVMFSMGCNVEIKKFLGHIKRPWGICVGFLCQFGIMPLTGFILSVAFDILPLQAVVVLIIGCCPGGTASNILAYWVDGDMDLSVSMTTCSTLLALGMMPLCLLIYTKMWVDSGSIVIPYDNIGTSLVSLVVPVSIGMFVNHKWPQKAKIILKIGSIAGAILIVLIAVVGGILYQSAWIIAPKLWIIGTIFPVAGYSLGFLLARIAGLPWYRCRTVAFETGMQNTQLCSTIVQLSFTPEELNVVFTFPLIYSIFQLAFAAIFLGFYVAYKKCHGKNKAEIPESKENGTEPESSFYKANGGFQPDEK
The experiment in a line: IBAT (h) assay: 3H-taurocholic acid uptake in human IBAT-overexpressing cells. The class given is cell-based. The settings on record: 0.25 μM 3H-taurocholic acid and 5 μM cold taurocholic acid, 20 minutes, read-out: hIBAT IC50. The method, then: 10,000 cells (Human or Mouse IBAT-overexpressing cells) were seeded in 96-wells plate (Corning CLS3809) in 200 μL MEM-alpha medium (Gibco 12571-063) supplemented with 10% FBS (Gibco 10438026) containing Puromycin (Gibco A1113803) (10 μg/mL) and incubated at 37° C. in 5% CO2 for 48 hours. After incubation, media was decanted from the wells and cells were washed two times with 300 μL of basal MEM-alpha medium (FBS-free). After decanting basal MEM-alpha medium each time, plates were tapped against paper towel to ensure maximum removal of residual media. Test inhibitor dilutions (highest test concentration being 10 μM, 3-fold serial dilution, 10 points) prepared in DMSO (Sigma D2650) were added in incubation mix (maintaining 0.2% final DMSO concentration) containing 0.25 μM 3H-taurocholic acid (ARC ART-1368) and 5 μM of cold taurocholic acid (Sigma T4009). 50 μL of incubation mix containing test inhibitors was then added to the wells (in duplicate) and the plates were incubated for 20 minutes in a CO2 incubator at 37° C. After incubation, the reaction was stopped by keeping the plates on ice water mix for 2-3 minutes and then the incubation mix was aspirated completely from the wells. The wells were washed two times with 250 μL of chilled unlabelled 1 mM taurocholic acid dissolved in HEPES (Gibco 15630080)-buffered (10 mM) HBSS (Gibco 14175079) (pH 7.4). The plates were tapped against a paper towel after every wash to ensure maximum removal of blocking buffer.
100 μL of MicroScint-20 (PerkinElmer 6013621) was added to the wells and kept overnight at room temperature before reading the plates in TopCount NXT™ Microplate Scintillation and Luminescence Counter from PerkinElmer under 3H Test protocol (set at 120 seconds reading time per well).
(§1) All test compounds were provided in powder form at room temperature. 10 mM DMSO stocks of the test compounds were prepared, aliquoted and stored at −20° C. From the 10 mM DMSO stock of the compounds, a 3-fold serial dilution in DMSO was prepared to get a total of 10 dilutions of the test compounds. 0.5 μL of this dilution in DMSO was added to 250 μL of FBS-free basal media containing 3H-taurocholic acid and cold taurocholic acid to prepare the incubation mixture.

Assay [2] has as its target T2, Human LBAT (Homo sapiens, UniProt Q14973).
T2 construct: expressed in transfected cells; cells kept under Geneticin selection
T2 sequence (Q14973 1-349): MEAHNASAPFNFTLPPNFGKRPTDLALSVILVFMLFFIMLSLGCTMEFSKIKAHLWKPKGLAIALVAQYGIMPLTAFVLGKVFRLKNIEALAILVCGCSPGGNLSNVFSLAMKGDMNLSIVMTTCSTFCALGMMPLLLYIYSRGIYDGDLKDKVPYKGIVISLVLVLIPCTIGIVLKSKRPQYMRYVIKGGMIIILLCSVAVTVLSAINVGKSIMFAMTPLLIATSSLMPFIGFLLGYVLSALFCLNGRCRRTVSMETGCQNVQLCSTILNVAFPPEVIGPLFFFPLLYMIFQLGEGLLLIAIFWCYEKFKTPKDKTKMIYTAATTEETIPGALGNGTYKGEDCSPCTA
The experiment in a line: LBAT (h) assay: 3H-taurocholic acid uptake in human LBAT-overexpressing cells. The class given is cell-based. The settings on record: 0.3 μM 3H-taurocholic acid and 7.5 μM cold taurocholic acid, 20 minutes, read-out: hLBAT IC50. Here is the method:
20,000 cells (Human or Mouse LBAT-overexpressing cells) were seeded in 96-wells plate (Corning CLS3809) in 100 μL MEM-alpha medium (Gibco 12571-063) supplemented with 10% FBS (Gibco 10438026) containing Geneticin (Gibco 10131-027) (1 mg/mL) and incubated at 37° C. in 5% CO2 for 24 hours. After incubation, media was decanted from the wells and cells were washed two times with 300 μL of basal MEM-alpha medium (FBS-free). After decanting basal MEM-alpha medium each time, plates were tapped against paper towel to ensure maximum removal of residual media. For human LBAT, incubation mix was prepared by adding test inhibitor dilutions (3-fold serial dilution in DMSO (Sigma D2650), 10 points) in MEM-alpha (without FBS) containing 0.3 μM 3H-taurocholic acid (ARC ART-1368) and 7.5 μM cold taurocholic acid (Sigma T4009) (maintaining 0.2% final DMSO concentration). For mouse LBAT, incubation mix was prepared by adding test inhibitor dilutions (3-fold serial dilution in DMSO, 10 points) in MEM-alpha (without FBS) containing 0.3 μM 3H-taurocholic acid and 25 μM cold taurocholic acid maintaining 0.2% final DMSO concentration).
50 μL of incubation mix containing test inhibitors was then added to the wells (in duplicate) and the plates were incubated for 20 minutes in a CO2 incubator at 37° C. After incubation, the reaction was stopped by keeping the plates on ice water mix for 2-3 minutes and then the incubation mix was aspirated completely from the wells. The wells were washed two times with 250 μL of chilled unlabelled 1 mM taurocholic acid dissolved in HEPES (Gibco 15630080)-buffered (10 mM) HBSS (Gibco 14175079) (pH 7.4). The plates were tapped against a paper towel after every wash to ensure maximum removal of blocking buffer.
100 μL of MicroScint-20 (PerkinElmer 6013621) was added to the wells and kept overnight at room temperature before reading the plates in TopCount NXT™ Microplate Scintillation and Luminescence Counter from PerkinElmer under 3H Test protocol (set at 120 seconds reading time per well, with normal plate orientation).
as §1

Turning to `CCCCC1(CCCC)CN(c2ccc(C(F)(F)F)cc2)c2cc(SC)c(OCC(=O)O)cc2S(=O)(=O)C1` [Example 6, 2-((3,3-dibutyl-7-(methylthio)-1,1-dioxido-5-(4-(trifluoromethyl)phenyl)-2,3,4,5-tetrahydro-1,5-benzothiazepin-8-yl)oxy)acetic Acid], the results for the negative logarithm of the IC50 (pIC50) in assay [1] and in assay [2] were 7.23 and 5.44, respectively.
For `CCCCC1(CC)CN(c2ccc(O)cc2)c2cc(SC)c(OCC(=O)O)cc2S(=O)(=O)C1` (single isomer, unassigned) [Example 20, 2-((3-butyl-3-ethyl-5-(4-hydroxyphenyl)-7-(methylthio)-1,1-dioxido-2,3,4,5-tetrahydro-1,5-benzothiazepin-8-yl)oxy)acetic Acid] the same measures were 7.85 and 6.12.
For `CCCCC1(CCCC)CN(c2ccccc2)c2cc(Cl)c(OCC(=O)O)cc2S(=O)(=O)C1` [Example 13, 2-((3,3-dibutyl-7-chloro-1,1-dioxido-5-phenyl-2,3,4,5-tetrahydro-1,5-benzothiazepin-8-yl)oxy)acetic Acid], the pIC50 in assay [1] was 6.57; in assay [2], 5.79.
For `CCCCC1(CC)CN(c2ccccc2)c2cc(F)c(OCC(=O)O)cc2S(=O)(=O)C1` (stereo not drawn) [Example 12, 2-((3-butyl-3-ethyl-7-fluoro-1,1-dioxido-5-phenyl-2,3,4,5-tetrahydro-1,5-benzothiazepin-8-yl)oxy)acetic Acid] the same measures were 6.46 and 6.33.
For `CCCCC1(CCCC)CN(c2ccccc2)c2cc(F)c(OCC(=O)O)cc2S(=O)(=O)C1` [Example 10, 2-((3,3-dibutyl-7-fluoro-1,1-dioxido-5-phenyl-2,3,4,5-tetrahydro-1,5-benzothiazepin-8-yl)oxy)acetic Acid] the same measures were 6.75 and 5.97.
For `CCCCC1(CCCC)CN(c2ccccc2)c2cc(C#N)c(OCC(=O)O)cc2S(=O)(=O)C1` [Example 11, 2-((3,3-dibutyl-7-cyano-1,1-dioxido-5-phenyl-2,3,4,5-tetrahydro-1,5-benzothiazepin-8-yl)oxy)acetic Acid] the same measures were 6.55 and 5.60.
